In brackets after ≈: the same amount, converted by molar mass.
Legend:
[1] = system: K562/ADR; test: Leukemia cell growth inhibition, MTT, 72 h; type: cell-based; settings: Homo sapiens
Outline: (§1)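 Growth inhibition was scored by MTT after 72 h exposure to a concentration range of oridonin derivatives (37° C, 5% CO2). Compound went on the day after seeding 6000 cells per well of K562/ADR, H9, Jurkat or Kasumi-1.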

[2] = system: Kasumi-1; test: Leukemia cell growth inhibition, MTT, 72 h; type: cell-based; settings: Homo sapiens
Outline: as §1

[3] = system: H9; test: Leukemia cell growth inhibition, MTT, 72 h; type: cell-based, human; settings: Homo sapiens, H9; 72 h, MTT
Outline: as §1

[4] = system: Jurkat; test: Leukemia cell growth inhibition, MTT, 72 h; type: cell-based, human; settings: Homo sapiens, Jurkat; 72 h, MTT
Outline: as §1

[5] = system: NB4; test: Leukemia cell growth inhibition, MTT, 72 h; type: cell-based, human; settings: Homo sapiens, NB-4; 72 h, MTT
Outline: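 Viability determined by MTT following a 72-hour, 37° C, 5% CO2 incubation with test compounds at different concentrations, added the day after seeding 6000 cells per well.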

[6] = system: RPMI 8226; test: Multiple myeloma cell growth inhibition, MTT, 72 h; type: cell-based; settings: Homo sapiens
Outline: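 Growth inhibition by MTT after 72 h drug exposure (37 °C, 5% CO2) over a concentration range of oridonin derivatives. RPMI 8226 cells plated at 6000 per well and dosed the following day.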

[7] = system: CNE; test: Solid tumor cell growth inhibition, MTT, 72 h; type: cell-based, human; settings: Homo sapiens, CNE; 72 h, MTT
Outline: (§2)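 Viability was read by MTT after 72 hours' exposure to varied concentrations of oridonin derivatives at 37° C, 5% CO2. Beforehand, 6000 cells per well were preincubated 24 hours in DMEM high glucose containing 10% fetal bovine serum.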

[8] = system: Hela; test: Solid tumor cell growth inhibition, MTT, 72 h; type: cell-based, human; settings: Homo sapiens, HeLa; 72 h, MTT
Outline: as §2

[9] = system: Hep-2; test: Solid tumor cell growth inhibition, MTT, 72 h; type: cell-based, human; settings: Homo sapiens, HEp-2; 72 h, MTT
Outline: as §2

[10] = system: MGC-803; test: Solid tumor cell growth inhibition, MTT, 72 h; type: cell-based, human; settings: Homo sapiens, MGC-803; 72 h, MTT
Outline: as §2

[11] = system: A549; test: Solid tumor cell growth inhibition, MTT, 72 h; type: cell-based; settings: Homo sapiens
Outline: as §2

[12] = system: Becap-37; test: Solid tumor cell growth inhibition, MTT, 72 h; type: cell-based; settings: Homo sapiens
Outline: as §2

[13] = system: CaEs-17; test: Solid tumor cell growth inhibition, MTT, 72 h; type: cell-based; settings: Homo sapiens, CaEs17
Outline: as §2

[14] = system: Hep G2; test: Solid tumor cell growth inhibition, MTT, 72 h; type: cell-based; settings: Homo sapiens, HepG2
Outline: as §2

[15] = system: MG-63; test: Solid tumor cell growth inhibition, MTT, 72 h; type: cell-based; settings: Homo sapiens
Outline: as §2

[16] = system: PANC-1; test: Solid tumor cell growth inhibition, MTT, 72 h; type: cell-based; settings: Homo sapiens
Outline: as §2

[17] = system: PC-3; test: Solid tumor cell growth inhibition, MTT, 72 h; type: cell-based; settings: Homo sapiens
Outline: as §2

[18] = system: RKO; test: Solid tumor cell growth inhibition, MTT, 72 h; type: cell-based; settings: Homo sapiens
Outline: as §2

[19] = system: SK-OV-3; test: Solid tumor cell growth inhibition, MTT, 72 h; type: cell-based; settings: Homo sapiens, SK-OV-3, 72 h, MTT; for IC50: read-out: IC50 SK-OV-3; for IC90: read-out: IC90 SK-OV-3
Outline: as §2

[20] = system: U87-MG; test: Solid tumor cell growth inhibition, MTT, 72 h; type: cell-based; settings: Homo sapiens, U-87 MG
Outline: as §2

Compound | IC50 [1] [µg/mL] | IC90 [1] [µg/mL] | IC50 [2] [µg/mL] | IC90 [2] [µg/mL] | IC50 [3] [µg/mL] | IC90 [3] [µg/mL] | IC50 [4] [µg/mL] | IC90 [4] [µg/mL] | IC50 [5] [µg/mL] | IC90 [5] [µg/mL] | IC50 [6] [µg/mL] | IC90 [6] [µg/mL] | IC50 [7] [µg/mL] | IC90 [7] [µg/mL] | IC50 [8] [µg/mL] | IC90 [8] [µg/mL] | IC50 [9] [µg/mL] | IC90 [9] [µg/mL] | IC50 [10] [µg/mL] | IC90 [10] [µg/mL] | other results
C=C1C(=O)[C@]23[C@H](OC(=O)C4CC4)[C@H]1CC[C@H]2[C@@]12CO[C@@]3(O)[C@@H](O)[C@@H]1C(C)(C)CCC2=O [BS-OR-017] | 0.52 (≈ 1.21 µM) | 1.9 (≈ 4.41 µM) | 0.69 (≈ 1.6 µM) | 1.7 (≈ 3.95 µM) | 0.53 (≈ 1.23 µM) | 0.98 (≈ 2.28 µM) | 0.92 (≈ 2.14 µM) | 5.63 (≈ 13.1 µM) | 0.14 (≈ 0.325 µM) | 0.82 (≈ 1.9 µM) | 0.5 (≈ 1.16 µM) | 1.88 (≈ 4.37 µM) | 1.13 (≈ 2.62 µM) | 4.96 (≈ 11.5 µM) | 1.35 (≈ 3.14 µM) | 3.86 (≈ 8.97 µM) | 1.62 (≈ 3.76 µM) | 6.93 (≈ 16.1 µM) | 0.91 (≈ 2.11 µM) | 4.16 (≈ 9.66 µM) | IC50 [11]: 2.93 µg/mL (≈ 6.81 µM); IC90 [11]: 6.29 µg/mL (≈ 14.6 µM); IC50 [12]: 1.13 µg/mL (≈ 2.62 µM); IC90 [12]: 4.58 µg/mL (≈ 10.6 µM); IC50 [13]: 1.32 µg/mL (≈ 3.07 µM); IC90 [13]: 5.89 µg/mL (≈ 13.7 µM); IC50 [14]: 1.61 µg/mL (≈ 3.74 µM); IC90 [14]: 8.04 µg/mL (≈ 18.7 µM); IC50 [15]: 0.47 µg/mL (≈ 1.09 µM); IC90 [15]: 1.8 µg/mL (≈ 4.18 µM); IC50 [16]: 1.96 µg/mL (≈ 4.55 µM); IC90 [16]: 5.76 µg/mL (≈ 13.4 µM); IC50 [17]: 1.99 µg/mL (≈ 4.62 µM); IC90 [17]: 3.92 µg/mL (≈ 9.11 µM); IC50 [18]: 0.6 µg/mL (≈ 1.39 µM); IC90 [18]: 1.91 µg/mL (≈ 4.44 µM); IC50 [19]: 1.99 µg/mL (≈ 4.62 µM); IC90 [19]: 3.92 µg/mL (≈ 9.11 µM); IC50 [20]: 1.24 µg/mL (≈ 2.88 µM); IC90 [20]: 3.64 µg/mL (≈ 8.46 µM)
C=C1C(=O)[C@]23[C@H](OC(=O)/C=C/c4ccccc4)[C@H]1CC[C@H]2[C@@]12CO[C@@]3(O)[C@@H](O)[C@@H]1C(C)(C)CCC2=O [BS-OR-019] | 0.43 (≈ 0.873 µM) | 1.74 (≈ 3.53 µM) | 0.58 (≈ 1.18 µM) | 1.55 (≈ 3.15 µM) | 2.69 (≈ 5.46 µM) | 5.41 (≈ 11 µM) | 0.58 (≈ 1.18 µM) | 2.48 (≈ 5.03 µM) | 1.02 (≈ 2.07 µM) | 3.66 (≈ 7.43 µM) | 0.34 (≈ 0.69 µM) | 1.7 (≈ 3.45 µM) | 7.19 (≈ 14.6 µM) | > 16 | 1.43 (≈ 2.9 µM) | 3.74 (≈ 7.59 µM) | 10.7 (≈ 21.7 µM) | > 16 | 4.98 (≈ 10.1 µM) | 12 (≈ 24.4 µM) | IC50 [11]: 1.66 µg/mL (≈ 3.37 µM); IC90 [11]: 4.43 µg/mL (≈ 8.99 µM); IC50 [12]: 0.89 µg/mL (≈ 1.81 µM); IC90 [12]: 8.43 µg/mL (≈ 17.1 µM); IC50 [13]: 0.89 µg/mL (≈ 1.81 µM); IC90 [13]: 5.62 µg/mL (≈ 11.4 µM); IC50 [14]: 0.94 µg/mL (≈ 1.91 µM); IC90 [14]: 14.6 µg/mL (≈ 29.7 µM); IC50 [15]: 0.35 µg/mL (≈ 0.711 µM); IC90 [15]: 0.79 µg/mL (≈ 1.6 µM); IC50 [16]: 1.53 µg/mL (≈ 3.11 µM); IC90 [16]: 9.62 µg/mL (≈ 19.5 µM); IC50 [17]: 1.41 µg/mL (≈ 2.86 µM); IC90 [17]: 3.86 µg/mL (≈ 7.84 µM); IC50 [18]: 0.38 µg/mL (≈ 0.771 µM); IC90 [18]: 0.89 µg/mL (≈ 1.81 µM); IC50 [19]: 1.41 µg/mL (≈ 2.86 µM); IC90 [19]: 3.86 µg/mL (≈ 7.84 µM); IC50 [20]: 0.77 µg/mL (≈ 1.56 µM); IC90 [20]: 2.43 µg/mL (≈ 4.93 µM)

— patent US9902736B2, “1-oxo/acylation-14-acylated oridonin derivative, preparation method therefor and application thereof” (HANGZHOU BENSHENG PHARMACEUTICAL CO., LTD., priority 2012, dated 2018)
